From patent publication US9615577B2, “Herbicidally active cyclic dione compounds, or derivatives therefor, substituted by a phenyl which has an alkynyl-containing substituent” (Syngenta Limited, priority 2012, dated 2017)

Columns and labels:
Assay type in all cases: in vivo
[1] = test system: Alopecurus myosuroides (ALOMY); experiment: Test 1A glasshouse assay for herbicidal activity, post-emergence; details: 312 h, evaluated after 13 days, read-out: percentage phytotoxicity ALOMY
Procedure, shortened: (§1)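 Test plants grew from seed in standard soil under controlled glasshouse conditions (24/16 °C, 14 h light, 65% humidity) and received an aqueous acetone (50:50) spray with 0.5% Tween 20, either one day after sowing or after eight days. Damage was rated visually as percent phytotoxicity 13 days later.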

[2] = test system: Amaranthus retroflexus (AMARE); experiment: as above; details: 312 h, evaluated after 13 days, read-out: percentage phytotoxicity AMARE
Procedure, shortened: as §1

[3] = test system: Echinochloa crus-galli (ECHCG); experiment: as above; details: 312 h, evaluated after 13 days, read-out: percentage phytotoxicity ECHCG
Procedure, shortened: as §1

Setaria faberi (SETFA) [4] = experiment: as above; details: 312 h, evaluated after 13 days, read-out: percentage phytotoxicity SETFA
Procedure, shortened: as §1

[5] = test system: Beta vulgaris (BEAVA, sugar beet); experiment: Test 1B glasshouse assay for herbicidal activity, pre-emergence; details: 480 h, 500 g/ha, 20 DAA, read-out: percentage phytotoxicity BEAVA
Description: (§2) Seeds of a variety of monocotyledonous and dicotyledonous test plants are sown in standard soil in pots. The plants are cultivated for one day (for pre-emergence) or for about 12 days (range=10-13 days) (for post-emergence) under controlled conditions in a glasshouse (warm climate species at 24/18° C., cool climate species at 20/16° C., both at day/night; 16 hours light; 65% humidity).
(§3) An “instant formulation”, known as the “IF50”, containing 50 g/liter (i.e. 5% w/v) of the “technical” (i.e. unformulated) active ingredient is prepared by dissolving the active ingredient in a mixture of organic solvents and emulsifier, details of which are provided in the Table below. This IF50 is then mixed with a small, variable amount of acetone to aid dissolution, before addition of a 0.2% v/v aqueous solution of the adjuvant X-77 (which is a mixture of alkyl aryl polyoxyethylene glycols and free fatty acids in isopropanol, CAS Registry number 11097-66-8), as the aqueous diluent, to form an aqueous spray solution which contains a predetermined concentration of the active ingredient (which varies depending on the application rate of the active ingredient to the plants) and 0.2% v/v of the adjuvant X-77. This aqueous spray solution is then sprayed onto the plants, after one day's cultivation (for pre-emergence) or after about 12 days' cultivation (for post-emergence).
(§4) The test plants are then grown on, in a glasshouse (greenhouse) under controlled conditions (at either 24/18° C. or 20/16° C. (day/night) as mentioned above; 16 hours light; 65% humidity) and are watered twice daily. Either 15 days after application of the herbicide (15 DAA) (for post-emergence), or 20 days after application of the herbicide (20 DAA) (for pre-emergence), the test plants are evaluated visually, and an assessed percentage phytotoxicity score is given for each herbicidal application on each plant species (where 100%=total damage to plant; 0%=no damage to plant).
(§5) Cool climate crop plants: Triticum aestivum (TRZAW, winter wheat), Brassica napus (BRSNN, rape, also called oilseed rape or rapeseed), Beta vulgaris (BEAVA, sugar beet).

[6] = test system: Brassica napus (BRSNN, rape); experiment: as above; details: 480 h, 500 g/ha, 20 DAA, read-out: percentage phytotoxicity BRSNN
Description: as §2, §3, §4, §5

[7] = test system: Triticum aestivum (TRZAW, winter wheat); experiment: as above; details: 480 h, 500 g/ha, 20 DAA, read-out: percentage phytotoxicity TRZAW
Description: as §2, §3, §4, §5

[8] = test system: Glycine max (GLXMA, soybean); experiment: as above; details: 480 h, 500 g/ha, 20 DAA, read-out: percentage phytotoxicity GLXMA
Description: as §2, §3, §4
(§6) Warm climate crop plants: Glycine max (GLXMA, soybean).

[9] = test system: Alopecurus myosuroides (ALOMY); experiment: as above; details: 480 h, 500 g/ha, 20 DAA, read-out: percentage phytotoxicity ALOMY
Description: as §2, §3, §4
(§7) Cool climate (“cool season”) grassy monocotyledonous weeds: Alopecurus myosuroides (ALOMY), Avena fatua (AVEFA), Lolium perenne (LOLPE).

Avena fatua (AVEFA) = experiment: as above; details: 480 h, 500 g/ha, 20 DAA, read-out: percentage phytotoxicity AVEFA
Description: as §2, §3, §4, §7

Lolium perenne (LOLPE) = experiment: as above; details: 480 h, 500 g/ha, 20 DAA, read-out: percentage phytotoxicity LOLPE
Description: as §2, §3, §4, §7

[10] = test system: Beta vulgaris (BEAVA, sugar beet); experiment: Test 1B glasshouse assay for herbicidal activity, post-emergence; details: 360 h; for plant injury at 60 g/ha: 60 g/ha application rate
Description: as §2, §3, §4, §5

[11] = test system: Brassica napus (BRSNN, rape); experiment: as above; details: 360 h; for plant injury at 60 g/ha: 60 g/ha application rate
Description: as §2, §3, §4, §5

[12] = test system: Triticum aestivum (TRZAW, winter wheat); experiment: as above; details: 360 h; for plant injury at 60 g/ha: 60 g/ha application rate
Description: as §2, §3, §4, §5

[13] = test system: Glycine max (GLXMA, soybean); experiment: as above; details: 360 h; for plant injury at 60 g/ha: 60 g/ha application rate
Description: as §2, §3, §4, §6

[14] = test system: Digitaria sanguinalis (DIGSA); experiment: as above; details: 360 h; for pest or weed control at 60 g/ha: 60 g/ha application rate
Description: as §2, §3, §4
(§8) Warm climate (“warm season”) grassy monocotyledonous weeds: Setaria faberi (SETFA), SORVU (Sorghum bicolor (L.) Moench ssp. Bicolor, or Sorghum vulgare Pers.), Digitaria sanguinalis (DIGSA), Echinochloa crus-galli (ECHCG), and Brachiaria plantaginea (BRAPL).

Setaria faberi (SETFA) [15] = experiment: as above; details: 360 h; for pest or weed control at 60 g/ha: 60 g/ha application rate
Description: as §2, §3, §4, §8

## CC#Cc1cc(C)c(C2C(=O)CC(CCSC)CC2=O)c(C)c1 (stereo not shown) [Compound A-21, 2-(2,6-Dimethyl-4-prop-1-ynyl-phenyl)-5-(2-methylsulfanyl-ethyl)cyclohexane-1,3-dione]
[1]; 30 g/ha
  pest or weed control at 30 g/ha: 50%
[1]
  pest or weed control at 250 g/ha: 90%
[2]; 30 g/ha
  pest or weed control at 30 g/ha: 80%
[2]
  pest or weed control at 250 g/ha: 20%
[3]; 30 g/ha
  pest or weed control at 30 g/ha: 80%
[3]
  pest or weed control at 250 g/ha: 100%
Setaria faberi (SETFA) [4]; 30 g/ha
  pest or weed control at 30 g/ha: 70%
Setaria faberi (SETFA) [4]
  pest or weed control at 250 g/ha: 100%

## CC#Cc1ccc(C2C(=O)C3CCC(C3)C2=O)c(C)c1 (single isomer, unassigned) [Compound A-2]
[1]
  pest or weed control at 250 g/ha: 90%
[2]
  pest or weed control at 250 g/ha: 0%
[3]
  pest or weed control at 250 g/ha: 100%
Setaria faberi (SETFA) [4]
  pest or weed control at 250 g/ha: 100%
[5]
  plant injury at 500 g/ha: 0%
[6]
  plant injury at 500 g/ha: 40%
[7]
  plant injury at 500 g/ha: 60%
[8]
  plant injury at 500 g/ha: 0%
[9]
  pest or weed control at 500 g/ha: 100%
Avena fatua (AVEFA)
  pest or weed control at 500 g/ha: 80%
Lolium perenne (LOLPE)
  pest or weed control at 500 g/ha: 100%
[10]
  plant injury at 60 g/ha: 10%
[11]
  plant injury at 60 g/ha: 70%
[12]
  plant injury at 60 g/ha: 80%
[13]
  plant injury at 60 g/ha: 40%
[14]
  pest or weed control at 60 g/ha: 100%
Setaria faberi (SETFA) [15]
  pest or weed control at 60 g/ha: 100%

## CC#Cc1ccc(C2C(=O)C(C)(C)OC(C)(C)C2=O)c(C)c1 [Compound A-1]
[1]
  pest or weed control at 250 g/ha: 90%
[2]
  pest or weed control at 250 g/ha: 10%
[3]
  pest or weed control at 250 g/ha: 100%
Setaria faberi (SETFA) [4]
  pest or weed control at 250 g/ha: 70%
[5]
  plant injury at 500 g/ha: 10%
[6]
  plant injury at 500 g/ha: 60%
[7]
  plant injury at 500 g/ha: 40%
[8]
  plant injury at 500 g/ha: 10%
[9]
  pest or weed control at 500 g/ha: 70%
Avena fatua (AVEFA)
  pest or weed control at 500 g/ha: 10%
Lolium perenne (LOLPE)
  pest or weed control at 500 g/ha: 100%
[10]
  plant injury at 60 g/ha: 30%
[11]
  plant injury at 60 g/ha: 70%
[12]
  plant injury at 60 g/ha: 80%
[13]
  plant injury at 60 g/ha: 70%
[14]
  pest or weed control at 60 g/ha: 80%
Setaria faberi (SETFA) [15]
  pest or weed control at 60 g/ha: 70%

## Cc1cc(C#CCl)cc(C)c1C1C(=O)CC(CC2CCOCC2)CC1=O (stereo not shown) [Compound A-8]
[1]
  pest or weed control at 250 g/ha: 80%
[2]
  pest or weed control at 250 g/ha: 40%
[3]
  pest or weed control at 250 g/ha: 100%
Setaria faberi (SETFA) [4]
  pest or weed control at 250 g/ha: 90%
[10]; 30 g/ha application rate
  plant injury at 30 g/ha: 30%
[11]; 30 g/ha application rate
  plant injury at 30 g/ha: 70%
[12]; 30 g/ha application rate
  plant injury at 30 g/ha: 50%
[13]; 30 g/ha application rate
  plant injury at 30 g/ha: 50%
[14]; 30 g/ha application rate
  pest or weed control at 30 g/ha: 100%
Setaria faberi (SETFA) [15]; 30 g/ha application rate
  pest or weed control at 30 g/ha: 90%
